# Assay results: patent publication US20080090805A1, “CB-1 MODULATING COMPOUNDS AND THEIR USE” (ACADIA PHARMACEUTICALS INC., priority 2005, published 2008)
# Read-outs that look alike come from different tables or passages of the source.
# Key:
# native CB1 receptors = native CB1 receptors (Rattus norvegicus, UniProt P20272); assay: CB1 receptor rat binding assay ([3H]SR141716A, rat brain membranes)
# human CB1 receptor = human CB1 receptor (Homo sapiens, UniProt P21554); assay: CB1 receptor human binding assay ([3H]SR141716A, transfected HEK-293 T membranes); settings: human CB1, HEK-293 T membranes; for Ki: read-out: Binding Human pKi (converted)
# [1] = Clearance study, liver microsomes (rats); settings: rat, pH 7.4
# [2] = Clearance study, liver microsomes (mice); settings: mouse, pH 7.4
# [3] = Clearance study, liver microsomes (human); settings: pH 7.4
# hERG = hERG (Homo sapiens, UniProt Q12809); assay: HERG safety study (whole cell recordings, CHO cells); settings: CHO cells stably expressing hERG channels, pH 7.4
# [4] = rat brain membranes, [3H]SR141716A
# [5] = rat brain membranes, [3H]SR141716A, read-out: Binding rat pKi (converted)
# Chain of hERG (Q12809 whole entry): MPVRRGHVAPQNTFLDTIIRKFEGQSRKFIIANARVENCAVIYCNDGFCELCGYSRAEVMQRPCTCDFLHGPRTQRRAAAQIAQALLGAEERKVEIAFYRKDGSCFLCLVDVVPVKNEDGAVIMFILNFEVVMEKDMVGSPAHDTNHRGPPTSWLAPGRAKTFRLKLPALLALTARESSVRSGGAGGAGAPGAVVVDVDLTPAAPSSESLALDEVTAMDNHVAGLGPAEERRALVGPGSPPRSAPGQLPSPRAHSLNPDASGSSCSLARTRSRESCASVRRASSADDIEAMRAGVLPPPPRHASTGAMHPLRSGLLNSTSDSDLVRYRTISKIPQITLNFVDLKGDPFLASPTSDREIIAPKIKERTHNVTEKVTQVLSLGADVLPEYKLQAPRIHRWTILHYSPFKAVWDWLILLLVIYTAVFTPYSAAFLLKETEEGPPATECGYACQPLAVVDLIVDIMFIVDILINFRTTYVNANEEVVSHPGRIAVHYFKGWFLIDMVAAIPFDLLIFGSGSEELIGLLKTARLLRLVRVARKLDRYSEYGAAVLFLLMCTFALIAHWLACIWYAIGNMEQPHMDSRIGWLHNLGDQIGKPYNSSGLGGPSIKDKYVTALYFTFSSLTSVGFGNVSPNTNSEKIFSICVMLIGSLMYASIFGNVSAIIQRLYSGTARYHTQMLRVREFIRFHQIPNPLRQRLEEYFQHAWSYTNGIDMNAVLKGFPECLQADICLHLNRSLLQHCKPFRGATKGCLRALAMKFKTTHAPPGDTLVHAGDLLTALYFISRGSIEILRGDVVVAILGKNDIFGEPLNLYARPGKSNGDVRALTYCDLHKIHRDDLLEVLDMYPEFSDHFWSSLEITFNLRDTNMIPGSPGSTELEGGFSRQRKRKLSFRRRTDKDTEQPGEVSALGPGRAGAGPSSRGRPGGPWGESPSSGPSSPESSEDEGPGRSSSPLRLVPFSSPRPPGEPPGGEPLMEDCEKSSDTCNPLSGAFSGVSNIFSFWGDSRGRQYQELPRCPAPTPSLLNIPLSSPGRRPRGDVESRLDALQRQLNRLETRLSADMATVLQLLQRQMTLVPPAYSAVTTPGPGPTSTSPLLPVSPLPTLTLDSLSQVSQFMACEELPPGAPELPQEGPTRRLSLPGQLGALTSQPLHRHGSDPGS
# Chain of native CB1 receptors (P20272 whole entry): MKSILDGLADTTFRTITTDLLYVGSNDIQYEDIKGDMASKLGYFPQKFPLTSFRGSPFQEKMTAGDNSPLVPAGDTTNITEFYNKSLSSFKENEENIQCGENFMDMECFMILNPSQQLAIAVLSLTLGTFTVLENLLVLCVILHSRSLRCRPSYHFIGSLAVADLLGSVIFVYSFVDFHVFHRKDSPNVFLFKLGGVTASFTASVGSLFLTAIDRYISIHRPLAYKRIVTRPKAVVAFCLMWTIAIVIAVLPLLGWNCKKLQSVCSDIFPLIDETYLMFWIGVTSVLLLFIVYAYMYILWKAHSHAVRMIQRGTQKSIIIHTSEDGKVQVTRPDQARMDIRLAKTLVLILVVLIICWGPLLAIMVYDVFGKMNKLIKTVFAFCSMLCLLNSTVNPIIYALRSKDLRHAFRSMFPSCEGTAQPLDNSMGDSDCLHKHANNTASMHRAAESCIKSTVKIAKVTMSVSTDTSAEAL
# Chain of human CB1 receptor (P21554 whole entry): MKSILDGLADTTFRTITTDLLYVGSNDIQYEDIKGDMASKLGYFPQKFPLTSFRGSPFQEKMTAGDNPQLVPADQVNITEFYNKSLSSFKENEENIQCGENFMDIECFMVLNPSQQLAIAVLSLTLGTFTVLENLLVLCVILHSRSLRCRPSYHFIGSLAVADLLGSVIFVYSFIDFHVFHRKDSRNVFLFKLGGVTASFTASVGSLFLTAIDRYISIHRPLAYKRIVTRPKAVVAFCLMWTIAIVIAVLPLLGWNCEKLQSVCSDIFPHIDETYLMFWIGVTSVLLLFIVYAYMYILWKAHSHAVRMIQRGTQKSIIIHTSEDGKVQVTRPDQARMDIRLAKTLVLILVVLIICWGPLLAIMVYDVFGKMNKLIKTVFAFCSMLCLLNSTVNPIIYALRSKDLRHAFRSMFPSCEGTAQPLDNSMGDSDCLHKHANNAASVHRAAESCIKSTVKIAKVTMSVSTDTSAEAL
Binding rat Inh % (native CB1 receptors; [4]),Ki (native CB1 receptors; [5]),Binding Human Inh % (human CB1 receptor),Ki (human CB1 receptor),microsomal CLint at 1 μM [1],microsomal CLint at 1 μM [2],microsomal CLint at 1 μM [3],SMILES,also measured
87%,0.501 nM,92%,0.0794 nM,,,,O=C(NCCCC(F)(F)F)c1ccc2c(c1)N=C(c1ccc(Cl)cc1F)c1ccccc1S2 [drawing 1175],
91%,0.501 nM,87%,0.158 nM,,,,O=C(NCCCC(F)(F)F)c1ccc2c(c1)N=C(c1ccc(Cl)s1)c1ccccc1S2 [drawing 1176],
89%,3.98 nM,93%,0.158 nM,,,,CC(C)CNC(=O)c1ccc2c(c1)N=C(c1ccc(Cl)cc1)c1ccc(F)cc1S2 [drawing 1177],
97%,1.58 nM,76%,0.2 nM,,,,O=C(NCc1cccs1)c1ccc2c(c1)N=C(c1ccc(F)cc1)c1ccccc1S2 [drawing 1178],
98%,2.51 nM,94%,0.251 nM,,,,CCCCNC(=O)c1ccc2c(c1)N=C(c1ccc(Cl)cc1)c1ccc(F)cc1S2 [drawing 1184],
89%,1 nM,86%,0.251 nM,,,,CC(C)CCNC(=O)c1ccc2c(c1)N=C(c1cccc(Cl)c1)c1ccccc1S2 [drawing 1185],
87%,10 nM,84%,0.316 nM,,,,COc1cccc(C2=Nc3cc(C(=O)NCCCC(F)(F)F)ccc3Sc3ccccc32)n1 [drawing 1186],
101%,2.51 nM,90%,0.316 nM,,,,CCCCNC(=O)c1ccc2c(c1)N=C(c1ccc(Cl)s1)c1ccccc1S2 [drawing 1191],
96%,1.58 nM,100%,0.398 nM,,,,CC(C)CNC(=O)c1ccc2c(c1)N=C(c1ccc(Cl)c(Cl)c1)c1ccccc1S2 [drawing 1192],
80%,1.26 nM,107%,0.631 nM,,,,O=C(NC1CCCCC1)c1ccc2c(c1)N=C(c1cccc(Cl)c1)c1ccccc1S2 [drawing 1194],
94%,5.01 nM,77%,0.631 nM,,,,CC(C)CNC(=O)c1ccc2c(c1)N=C(c1ccc(Cl)cc1F)c1ccccc1S2 [drawing 1199],
100%,5.01 nM,92%,0.631 nM,,,,CC(C)CNC(=O)c1ccc2c(c1)N=C(c1ccc(Cl)s1)c1ccc(Cl)cc1S2 [drawing 1200],
84%,3.16 nM,87%,1.26 nM,,,,O=C(NC1CCCCC1)c1ccc2c(c1)N=C(c1ccc(F)cc1)c1ccccc1S2 [drawing 1202],
93%,5.01 nM,96%,1.58 nM,,,,O=C(NN1CCCCCC1)c1ccc2c(c1)N=C(c1ccc(Cl)s1)c1ccccc1S2 [drawing 1208],
87%,2 nM,94%,1.58 nM,,,,O=C(NN1CCCCCC1)c1ccc2c(c1)N=C(c1cccc(Cl)c1)c1ccccc1S2 [drawing 1209],
95%,6.31 nM,74%,2 nM,,,,CCCNC(=O)c1ccc2c(c1)N=C(c1ccc(Cl)cc1)c1ccccc1S2 [drawing 1210],
79%,158 nM,89%,6.31 nM,,,,CC(C)CNC(=O)c1ccc2c(c1)N=C(c1ccccn1)c1ccccc1S2 [drawing 1217],
80%,50.1 nM,94%,20 nM,,,,COCCNC(=O)c1ccc2c(c1)N=C(c1ccc(Cl)s1)c1ccccc1S2 [drawing 1218],
,,,,41 µL/min/mg,53 µL/min/mg,31 µL/min/mg,CCCCNC(=O)c1ccc2c(c1)N=C(c1ccc(Cl)cc1)c1ccccc1[S+]2[O-] (stereo not drawn) [drawing 1736],
,,,,56 µL/min/mg,130 µL/min/mg,16 µL/min/mg,O=C(NCc1ccc(F)cc1)c1ccc2c(c1)N=C(c1ccc(Cl)cc1)c1ccccc1S2 [drawing 1741],
,,,,187 µL/min/mg,127 µL/min/mg,73 µL/min/mg,O=C(NCc1cccnc1)c1ccc2c(c1)N=C(c1cccc(F)c1)c1ccccc1S2 [drawing 1742],
,,,,225 µL/min/mg,386 µL/min/mg,89 µL/min/mg,O=C(NCc1cccs1)c1ccc2c(c1)N=C(c1ccccc1F)c1ccccc1S2 [drawing 1744],
,,,,264 µL/min/mg,668 µL/min/mg,56 µL/min/mg,CCCCNC(=O)c1ccc2c(c1)N=C(c1ccc(F)cn1)c1ccccc1S2 [drawing 1752],

Binding rat Inh % (native CB1 receptors; [4]),Ki (native CB1 receptors; [5]),Binding Human Inh % (human CB1 receptor),Ki (human CB1 receptor),microsomal CLint at 1 μM [1],microsomal CLint at 1 μM [2],microsomal CLint at 1 μM [3],SMILES,also measured
,,,,80 µL/min/mg,92 µL/min/mg,41 µL/min/mg,O=C(NCc1cccnc1)c1ccc2c(c1)N=C(c1ccc(Cl)cc1)c1ccccc1S2 [drawing 1756],
,,,,90 µL/min/mg,176 µL/min/mg,29 µL/min/mg,O=C(NC1CCCCC1)c1ccc2c(c1)N=C(c1cccc(F)c1)c1ccccc1S2 [drawing 1757],
,,,,318 µL/min/mg,659 µL/min/mg,513 µL/min/mg,C[C@@H]1CCC[C@H](C)N1NC(=O)c1ccc2c(c1)N=C(c1cccc(F)c1)c1ccccc1S2 [drawing 1758],
,,,,46 µL/min/mg,73 µL/min/mg,37 µL/min/mg,O=C(NCc1ccccn1)c1ccc2c(c1)N=C(c1ccc(Cl)cc1)c1ccccc1S2 [drawing 1760],
,,,,125 µL/min/mg,354 µL/min/mg,43 µL/min/mg,CC(C)CNC(=O)c1ccc2c(c1)N=C(c1ccc(F)cc1)c1ccccc1S2 [drawing 1761],
,,,,395 µL/min/mg,755 µL/min/mg,155 µL/min/mg,Cc1ccsc1C1=Nc2cc(C(=O)NCc3ccco3)ccc2Sc2ccccc21 [drawing 1762],
,,,,85 µL/min/mg,205 µL/min/mg,23 µL/min/mg,O=C(NCc1ccccc1)c1ccc2c(c1)N=C(c1cccc(Cl)c1)c1ccccc1S2 [drawing 1767],
,,,,154 µL/min/mg,82 µL/min/mg,130 µL/min/mg,O=C(NCCc1cccnc1)c1ccc2c(c1)N=C(c1cccc(Cl)c1)c1ccccc1S2 [drawing 1770],
,,,,31 µL/min/mg,37 µL/min/mg,11 µL/min/mg,O=C(NCc1ccc(F)cc1)c1ccc2c(c1)N=C(c1ccc(Cl)cc1)c1ccccc1[S+]2[O-] (stereo not drawn) [drawing 1772],
,,,,493 µL/min/mg,275 µL/min/mg,58 µL/min/mg,O=C(NCc1ccc(F)cc1)c1ccc2c(c1)N=C(C1CCCCC1)c1ccccc1S2 [drawing 1775],
,,,,542 µL/min/mg,852 µL/min/mg,227 µL/min/mg,Cc1ccsc1C1=Nc2cc(C(=O)NCc3cccs3)ccc2Sc2ccccc21 [drawing 1781],
,,,,290 µL/min/mg,416 µL/min/mg,64 µL/min/mg,O=C(NN1CCCCC1)c1ccc2c(c1)N=C(c1ccc(Cl)cn1)c1ccccc1S2 [drawing 1786],
,,,,63 µL/min/mg,166 µL/min/mg,23 µL/min/mg,O=C(NCc1ccccc1)c1ccc2c(c1)N=C(c1ccc(Cl)cc1)c1ccccc1S2 [drawing 1801],
,,,,75 µL/min/mg,97 µL/min/mg,29 µL/min/mg,O=C(NCc1ccco1)c1ccc2c(c1)N=C(c1ccc(Cl)cc1)c1ccccc1S2 [drawing 1803],
,,,,,,,O=C(NCCCC(F)(F)F)c1ccc2c(c1)N=C(c1ccc(Cl)cc1F)c1ccccc1S2 [drawing 1809],inhibition at 1 µM (hERG): 24%
,,,,,,,O=C(NCCCC(F)(F)F)c1ccc2c(c1)N=C(c1ccc(Cl)s1)c1ccccc1S2 [drawing 1810],inhibition at 1 µM (hERG): 14%
,,,,,,,CC(C)CNC(=O)c1ccc2c(c1)N=C(c1ccc(Cl)cc1)c1ccc(F)cc1S2 [drawing 1811],inhibition at 1 µM (hERG): 58%
,,,,,,,CCCCNC(=O)c1ccc2c(c1)N=C(c1ccc(Cl)cc1)c1ccccc1S2 [drawing 1812],inhibition at 1 µM (hERG): 49%
,,,,,,,CC(C)CNC(=O)c1ccc2c(c1)N=C(c1ccc(Cl)s1)c1ccccc1S2 [drawing 1813],inhibition at 1 µM (hERG): 26%
,,,,,,,O=C(NC1CCCCC1)c1ccc2c(c1)N=C(c1ccc(F)cc1)c1ccccc1S2 [drawing 1814],inhibition at 1 µM (hERG): 45%
,,,,,,,O=C(NN1CCCCCC1)c1ccc2c(c1)N=C(c1ccc(Cl)s1)c1ccccc1S2 [drawing 1816],inhibition at 1 µM (hERG): 30%
,,,,,,,O=C(NCCCC(F)(F)F)c1ccc2c(c1)N=C(c1cccc(F)c1)c1ccccc1S2 [drawing 1817],inhibition at 1 µM (hERG): 45%

SMILES,Binding rat Inh % (native CB1 receptors; [4]),Ki (native CB1 receptors; [5]),Binding Human Inh % (human CB1 receptor),Ki (human CB1 receptor),microsomal CLint at 1 μM [1],microsomal CLint at 1 μM [2],microsomal CLint at 1 μM [3],also measured
COc1cccc(C2=Nc3cc(C(=O)NC4CCC(F)(F)CC4)ccc3Sc3ccccc32)n1 [drawing 1193],82%,0.794 nM,88%,0.501 nM,,,,
O=C(NN1CCCCC1)c1ccc2c(c1)N=C(c1ccc(F)cc1)c1ccccc1S2 [drawing 1207],103%,10 nM,87%,1.26 nM,,,,
O=C(NN1CCCCCC1)c1ccc2c(c1)N=C(c1cccc(F)c1)c1ccccc1S2 [drawing 1215],97%,6.31 nM,103%,2 nM,,,,
O=C(NN1CCCCC1)c1ccc2c(c1)N=C(C1CCCCC1)c1ccccc1S2 [drawing 1216],94%,,65%,2 nM,,,,Ki (native CB1 receptors): 5.01 nM
